Data on 24 molecules can be found in patent US10428074B2, “Pyrrole heteroaryl ring derivative and method of use thereof” (Jiangsu Hengrui Medicine Co., Ltd., priority 2011, dated 2019).

SMILES strings stand for the structures.

The first assay deals with human erythroid leukemia cell line TF-1. The assay can be described thus: Proliferation inhibition assay on TF-1 cells mediated by IL-4. The following applies: 10 ng/mL IL-4, 72 hours. In kind it is cell-based. The source says:
The following in vitro assay is to determine the activity of the compounds of the present invention for inhibiting the proliferation of human erythroid leukemia cell line TF-1.
The activity is represented by the IC50 value, which can not only reflect the activity of a test compound for inhibiting JAK2 and JAK3 kinase, but can also reflect the selectivity of a test compound for JAK2 and JAK3 kinase.
The general procedures of the assay are given as follows: first, the TF-1 cells (purchased from ATCC, Catalog number: CRL 2003) were seeded in a 96-well cell culture plate at a suitable cell concentration (8000 cells/mL medium), and 10 ng/mL IL-4 (Invitrogen, Catalog Number: PHC0044) were added to each well. Then 10× serial concentration gradient of test compounds solutions (10000, 1000, 100, 10, 1 and 0.1 nM) were prepared, and then the 10× compound solutions prepared above were added to the 96-well cell culture plate containing IL-4. After the cell plates were cultured continuously for 72 hours, the activity of the test compounds for inhibiting the cell proliferation was determined by using a Cell Counting Kit-8 (purchased from Dojindo, Catalog Number: CK04). IC50 values were calculated from the data of the inhibition rates at various concentrations of the test compounds.
`Cc1noc(N2C[C@H]3C[C@H](N(C)c4ncnc5[nH]ccc45)C[C@H]3C2)n1` [Example 61, N-methyl-N-((3aR,5S,6aS)-2-(3-methyl-1,2,4-oxadiazol-5-yl)octahydrocyclopenta[c]pyrrol-5-yl)-7H-pyrrolo[2,3-d] pyrimidin-4-amine]: 507 nM corresponded to half-maximal inhibition (IC50).
Turning to `CN(c1ncnc2[nH]ccc12)[C@H]1C[C@@H]2CN(C(=O)OC(C)(C)C)C[C@@H]2C1` [Example 5, (3aR,5S,6aS)-tert-Butyl 5-(methyl(7H-pyrrolo[2,3-d]pyrimidin-4-yl)amino)hexahydro cyclopenta[c]pyrrole-2(1H)-carboxylate], the 50% inhibitory concentration (IC50) (commonly the concentration at which inhibition is half-maximal) is 133 nM.
The same measure, in the same setting: for `COc1nsc(NC(=O)N2C[C@H]3C[C@@H](N(C)c4ncnc5[nH]ccc45)C[C@H]3C2)n1` [Example 74, (3aR,5R,6aS)-N-(3-methoxy-1,2,4-thiadiazol-5-yl)-5-(methyl(7H-pyrrolo[2,3-d]pyrimidin-4-yl)amino)hexahydrocyclopenta [c]pyrrole-2(1H)-carboxamide] the value was 546 nM; for `CN(c1ncnc2[nH]ccc12)[C@H]1C[C@@H]2CN(C(=O)Nc3nc(C4CC4)ns3)C[C@@H]2C1` [Example 125, (3aR,5S,6aS)-N-(3-cyclopropyl-1,2,4-thiadiazol-5-yl)-5-(methyl(7H-pyrrolo[2,3-d]pyrimidin-4-yl)amino) hexahydrocyclopenta [c]pyrrole-2(1H)-carboxamide], 14 nM; for `CN(c1ncnc2[nH]c(F)cc12)[C@H]1C[C@@H]2CN(C(=O)CO)C[C@@H]2C1` [Example 129, 1-((3aR,5S,6aS)-5-((6-fluoro-7H-pyrrolo[2,3-d]pyrimidin-4-yl)(methyl)amino)hexahydrocyclopenta[c]pyrrol-2(1H)-yl)-2-hydroxyethanone], 539 nM.
`CN(c1ncnc2[nH]ccc12)C1C[C@@H]2CCN(C(=O)CC#N)C[C@@H]2C1` (stereo partly drawn) [Example 39, 3-((4aS,7aR)-6-(Methyl(7H-pyrrolo[2,3-d]pyrimidin-4-yl)amino)hexahydro-1H-cyclopenta[c]pyridin-2(3H,4H,4aH,5H,6H,7H,7aH)-yl)-3-oxopropanenitrile] showed an IC50 of 419 nM.
Still for that read-out and setting: for `CN(c1ncnc2[nH]ccc12)[C@@H]1C[C@@H]2CN(C(=O)OC(C)(C)C)C[C@]2(C)C1` (racemic) [Example 1, (3aR,5R,6aS/3aS,5S,6aR)-tert-butyl-3a-methyl-5-(methyl(7H-pyrrolo[2,3-d]pyrimidin-4-yl)amino)hexahydro cyclopenta[c]pyrrole-2(1H)-carboxylate] the value was 196 nM.

Staying with this assay, now noted: TF-1, 72 h, 10 ng/mL IL-4, 72 hours.
`CN(c1ncnc2[nH]cc(F)c12)[C@H]1C[C@@H]2CN(C(=O)CO)C[C@@H]2C1` [Example 128, 1-((3aR,5S,6aS)-5-((5-fluoro-7H-pyrrolo[2,3-d]pyrimidin-4-yl) (methyl)amino)hexahydrocyclopenta[c]pyrrol-2(1H)-yl)-2-hydroxyethanone] displayed an IC50 of 252 nM.

Another assay concerns T cells. The assay can be described thus: Proliferation inhibition assay on T cells (PBMC, anti-CD3, IL-2). Type of assay: cell-based, human. The following applies: Homo sapiens, T-cell, 72 h, IL-2 10 ng/mL. The text has this: The following in vitro assay is to determine the activity of the compounds of the present invention for inhibiting the proliferation of T cells.
The activity is represented by the IC50 value.
The general procedures of the assay are given as follows: first, the PBMC cell line (purchased from Shanghai Blood Center) was centrifuged, the supernatant was removed, and the cells counted. […] Then, the cells were washed 3 times, resuspended, diluted to 2×10^6/mL, and then mixed with recombinant human IL-2 (purchased from Peprotech, Catalog Number: 200-02) to a concentration of 10 ng/mL, and cultured for another 3 days. The cells were washed again 3 times, and diluted to 5×10^5/mL. 80 μL of the cells were seeded in each well of a 96-well cell culture plate. […] To he control wells, 10 μL culture medium were added. The plate was placed in an incubator. After incubating for 1 hr, negative control wells were mixed with 10 μL of culture medium, and the rest of the wells were mixed with IL-2 to a concentration of 10 ng/mL, and incubated continuously for 72 hours. […] IC50 values were calculated from the data of inhibition rates at various concentrations of the test compounds.
`CN(c1ncnc2[nH]ccc12)[C@@H]1CC2CNC(=O)CC2C1` (stereo partly drawn) [Example 148, (6S)-6-(methyl(7H-pyrrolo[2,3-d]pyrimidin-4-yl)amino) hexahydro-1H-cyclopenta[c] pyridin-3(2H)-one] returned an IC50 of 48 nM.
Same read-out and setting: for `CN(c1ncnc2[nH]cc(F)c12)[C@H]1C[C@@H]2CN(C(=O)CO)C[C@@H]2C1` [Example 128, 1-((3aR,5S,6aS)-5-((5-fluoro-7H-pyrrolo[2,3-d]pyrimidin-4-yl) (methyl)amino)hexahydrocyclopenta[c]pyrrol-2(1H)-yl)-2-hydroxyethanone] the value was 167 nM; for `COc1nsc(NC(=O)N2C[C@H]3C[C@@H](N(C)c4ncnc5[nH]ccc45)C[C@H]3C2)n1` [Example 74, (3aR,5R,6aS)-N-(3-methoxy-1,2,4-thiadiazol-5-yl)-5-(methyl(7H-pyrrolo[2,3-d]pyrimidin-4-yl)amino)hexahydrocyclopenta [c]pyrrole-2(1H)-carboxamide], 68 nM.
Still for that read-out and setting: for `CN(c1ncnc2[nH]ccc12)[C@@H]1C[C@@H]2CN(CCC#N)C[C@@H]2C1` [Example 68, 3-((3aR,5R,6aS)-5-(methyl(7H-pyrrolo[2,3-d]pyrimidin-4-yl)amino)hexahydrocyclopenta[c]pyrrol-2(1H)-yl)propanenitrile] the value was 824 nM; for `CN(c1ncnc2[nH]ccc12)[C@H]1C[C@H]2CNC(=O)C[C@H]2C1` [Example 40, (4aR,6R,7aR)-6-(Methyl(7H-pyrrolo[2,3-d]pyrimidin-4-yl)amino) hexahydro-1H-cyclopenta[c]pyridin-3(2H)-one], 48 nM; for `COC(=O)CN1C[C@H]2C[C@H](N(C)c3ncnc4[nH]ccc34)C[C@H]2C1` [Example 24, Methyl 2-((3aR,5S,6aS)-5-(methyl(7H-pyrrolo[2,3-d]pyrimidin-4-yl)amino)hexahydrocyclopenta[c]pyrrol-2(1H)-yl)acetate], 851 nM.
Turning to `CN(c1ncnc2[nH]ccc12)[C@H]1C[C@@H]2CN(S(=O)(=O)C3CC3)C[C@@H]2C1` [Example 15, N-((3aR,5S,6aS)-2-(Cyclopropylsulfonyl)octahydrocyclopenta[c]pyrrol-5-yl)-N-methyl-7H-pyrrolo[2,3-d]pyrimidin-4-amine], half-maximal inhibition (IC50) required 853 nM.
On the same count and under the same terms, the same measure for `CN(c1ncnc2[nH]ccc12)[C@H]1C[C@@H]2CN(CCC#N)C[C@@H]2C1` [Example 27, 3-((3 aR,5S,6aS)-5-(Methyl(7H-pyrrolo[2,3-d]pyrimidin-4-yl)amino)hexahydrocyclopenta[c]pyrrol-2(1H)-yl)propanenitrile]: 253 nM; for `CN(c1ncnc2[nH]ccc12)[C@H]1C[C@@H]2CN(C(=O)CNS(C)(=O)=O)C[C@@H]2C1` [Example 21, N-(2-((3aR,5S,6aS)-5-(Methyl(7H-pyrrolo[2,3-d]pyrimidin-4-yl)amino)hexahydrocyclopenta[c]pyrrol-2(1H)-yl)-2-oxoethyl)methanesulfonamide]: 892 nM.
Molecule `CN(c1ncnc2[nH]ccc12)[C@H]1C[C@@H]2CN(CC(F)(F)F)C[C@@H]2C1` [Example 56, N-methyl-N-((3aR,5S,6aS)-2-(2,2,2-trifluoroethyl)octahydrocyclopenta [c]pyrrol-5-yl)-7H-pyrrolo[2,3-d]pyrimidin-4-amine] returned a half-inhibitory concentration (IC50) of 119 nM.

The same assay, now with this note: Homo sapiens, T-cell; IL-2 10 ng/mL, 72 hours.
Turning to `CN(c1ncnc2[nH]ccc12)[C@H]1C[C@@H]2CN(C(=O)CCC#N)C[C@@H]2C1` [Example 22, 4-((3aR,5S,6aS)-5-(Methyl(7H-pyrrolo[2,3-d]pyrimidin-4-yl)amino)hexahydrocyclopenta[c]pyrrol-2(1H)-yl)-4-oxobutanenitrile], the IC50 is 281 nM.
In turn, `CCc1nsc(NC(=O)N2C[C@H]3C[C@H](N(C)c4ncnc5[nH]ccc45)C[C@H]3C2)n1` [Example 121, (3aR,5S,6aS)-N-(3-ethyl-1,2,4-thiadiazol-5-yl)-5-(methyl(7H-pyrrolo[2,3-d]pyrimidin-4-yl)amino)hexahydrocyclopenta[c] pyrrole-2(1H)-carboxamide] yielded a concentration for half-maximal inhibition (IC50) of 24 nM.
The molecule `CCC(=O)N1C[C@H]2C[C@H](N(C)c3ncnc4[nH]ccc34)C[C@H]2C1` [Example 84, 1-((3aR,5S,6aS)-5-(methyl(7H-pyrrolo[2,3-d]pyrimidin-4-yl)amino)hexahydrocyclopenta[c]pyrrol-2(1H)-yl)propan-1-one] yielded an IC50 of 509 nM.
Same read-out and setting: for `COc1cncc(NC(=O)N2C[C@H]3C[C@H](N(C)c4ncnc5[nH]ccc45)C[C@H]3C2)c1` [Example 109, (3aR,5S,6aS)-N-(5-methoxypyridin-3-yl)-5-(methyl(7H-pyrrolo[2,3-d]pyrimidin-4-yl)amino)hexahydrocyclopenta[c] pyrrole-2(1H)-carboxamide] the value was 762 nM; for `CN(c1ncnc2[nH]ccc12)[C@H]1C[C@@H]2CN(C(=O)C3CC3)C[C@@H]2C1` [Example 13, Cyclopropyl((3aR,5S,6aS)-5-(methyl(7H-pyrrolo[2,3-d]pyrimidin-4-yl)amino)hexahydrocyclopenta[c]pyrrol-2(1H)-yl)methanone], 754 nM.
Regarding `CN(c1ncnc2[nH]ccc12)[C@@H]1C[C@@H]2CCN(C(=O)Nc3nncs3)C[C@@H]2C1` [Example 150, (4aS,6R,7aR)-6-(methyl(7H-pyrrolo[2,3-d]pyrimidin-4-yl)amino)-N-(1,3,4-thiadiazol-2-yl)hexahydro-1H-cyclopenta[c]pyridine-2(3H)-carboxamide], the half-inhibitory concentration (IC50) was 221 nM.
The same measure, in the same setting: for `CN(c1ncnc2[nH]ccc12)[C@@H]1C[C@@H]2CN(C(=O)CO)C[C@@H]2C1` [Example 23, 2-Hydroxy-1-((3aR,5R,6aS)-5-(methyl(7H-pyrrolo[2,3-d]pyrimidin-4-yl)amino)hexahydrocyclopenta[c]pyrrol-2(1H)-yl)ethanone] the value was 543 nM.

Still in this assay, the particulars now being: IL-2 10 ng/mL, 72 hours; read-out: IC50(T cell).
Consider `CN(c1ncnc2[nH]ccc12)[C@@H]1C[C@H]2CN(C(=O)CO)C[C@@]2(C)C1` (racemic) [Example 14, 2-Hydroxy-1-((3aS,5R,6aR/3aS,5R,6aR)-3a-methyl-5-(methyl(7H-pyrrolo[2,3-d]pyrimidin-4-yl)amino)hexahydrocyclopenta[c]pyrrol-2(1H)-yl)ethanone], for which the half-inhibitory concentration (IC50) was 712 nM.
